Reference: US20250129091A1, “THIENOPYRROLOTRIAZINE COMPOUNDS, THEIR PREPARATION AND THEIR THERAPEUTIC USE” (Sanofi, priority 2022, published 2025)
Structures can show the parent of a compound that is named as a salt. Where two headings read alike, the source gives them in different places.

Columns and labels:
[1] = test system: TNF-α secretion; assay: TNF-α secretion assay (PMA-differentiated THP-1 cells, LPS-triggered, MSD readout); format: cell-based; conditions: LPS 24 h; for inhibition at 3 µM / inhibition at 10 µM: Homo sapiens
Protocol: Monocytic THP-1 cells (DSMZ) were maintained in RPMI media (RPMI 1640 Medium (1×) +10% FBS, biowest S181H). Cells were then differentiated at 160,000 cells per well in 96-well flat bottom cell culture plates with RPMI+0.1% Bovine Serum Albumin solution and 0.5 μM phorbol 12-myristate 13-acetate (PMA; Sigma, ref:P8139) overnight at 37° C. Experimental compounds were prepared and added as described above. TNF-α secretion was triggered by the addition of 0.5 μg/mL LPS (invivoGen, tlrl-3pelps) and cells were incubated for 24 h. 2.5 μL supernatant was removed, and TNF-α levels were monitored using an MSD assay (mesoscale, K15049) according to manufacturers' instructions.
(§1) IC50 values were calculated from the plot of percentage of inhibition versus the inhibitor concentration by a logistics fit according to: y=A2+(A1−A2)/(1+(x/IC50)^p) where y is the %-inhibition at the inhibitor concentration, x. A1 is the lowest inhibition value, i.e., 0%, and A2 the maximum inhibition value, i.e., 100%. The exponent, p, is the Hill coefficient. The curve fitting was conducted with an internally developed software.

[2] = test system: NLRP3 inflammasome; assay: IL-1β secretion assay (LPS-primed, nigericin-activated THP-1 cells, MSD readout); format: cell-based; conditions: read-out: IL1b IC50
Protocol: Monocytic THP-1 cells (DSMZ) were maintained in RPMI media (RPMI 1640 Medium (1×) +10% FBS, Eurobio CVFSVFOO—OU). Cells were then plated at 16,000 cells per well in 96-well round bottom cell culture plates (TPP, ref 92097) and maintained with RPMI and 0.1% Bovine Serum Albumin solution. Activation of the NLRP3 inflammasome requires both an NF-kB-dependent priming step and the addition of a NLRP3 activator. The priming step was induced by LPS (10 ng/mL, Sigma, ref:L4391) for 3 h at 37° C., then compound, in a 1:3.10 serial dilution series in DMSO 1:100, and the activator nigericin (Sigma Aldrich, ref: SML1779) 10 μM (final concentration) were added to the cells and co-incubated for 2 h. 50 μL supernatant was removed, and IL-1β levels were monitored using an MSD assay (Electro Chemical Luminescence Immunoassay (ECLI) according to manufacturers' instructions.
as §1

[3] = Homo sapiens, THP-1, LPS-primed

IC50 [2, 3] | IC50 ([2]; LPS-primed) | Structure (SMILES) | inhibition at 3 µM ([1]; compound at 3 μM) | inhibition at 10 µM ([1]; compound at 10 μM) | IC50 ([2]; Homo sapiens, LPS-primed) | TNF-a inhibition @ 3 μM ([1]; compound at 3 μM) | TNF-a inhibition @ 10 μM ([1]; compound at 10 μM)
54 nM | – | CC(C)c1nn(CC(=O)N[C@@H]2CCCN(C3CC3)C2)c(=O)c2cc3ccsc3n12 [Example 4, (R)—N-(1-cyclopropylpiperidin-3-yl)-2-(8-isopropyl-5-oxothieno[3′,2′:4,5]pyrrolo[1,2-d][1,2,4]triazin-6(5H)-yl)acetamide] | 21.5% | 7.5% | – | – | –
300 nM | – | CC(C)c1nn(CC(=O)N[C@@H]2CCCN(CC3CCCC3)C2)c(=O)c2cc3ccsc3n12 [Example 17, (R)—N-(1-(cyclopentylmethyl)piperidin-3-yl)-2-(8-isopropyl-5-oxothieno[3′,2′:4,5]pyrrolo [1,2-d][1,2,4]triazin-6(5H)-yl)acetamide] | 11.2% | 31.4% | – | – | –
801 nM | – | CC(C)c1nn(CC(=O)N[C@@H]2CCCN(C)C2)c(=O)c2cc3cc(Br)sc3n12 [Example 8, (R)-2-(2-bromo-8-isopropyl-5-oxothieno[3′,2′:4,5]pyrrolo[1,2-d][1,2,4]triazin-6(5H)-yl)-N-(1-methylpiperidin-3-yl)acetamide] | -10% | -21.8% | – | – | –
335 nM | – | CC(C)c1nn(CC(=O)N[C@@H]2CCCN(C[C@H](C)O)C2)c(=O)c2cc3ccsc3n12 [Example 3, N—((R)-1-((S)-2-hydroxypropyl)piperidin-3-yl)-2-(8-isopropyl-5-oxothieno[3′,2′:4,5]pyrrolo[1,2-d][1,2,4]triazin-6(5H)-yl)acetamide] | 3.1% | -8.2% | – | – | –
400 nM | – | C[C@H](O)CN1CCC[C@@H](NC(=O)Cn2nc(C3CC3)n3c(cc4ccsc43)c2=O)C1 [Example 22, 2-(8-cyclopropyl-5-oxothieno[3′,2′:4,5]pyrrolo[1,2-d][1,2,4]triazin-6(5H)-yl)-N—((R)-1-((S)-2-hydroxypropyl)piperidin-3-yl)acetamide] | -2.9% | 14.5% | – | – | –
– | – | CC(C)c1nn(CC(=O)NC2CN(C)CC(F)(F)C2)c(=O)c2cc3ccsc3n12 (stereo not drawn) [Example 35, N-(5,5-difluoro-1-methylpiperidin-3-yl)-2-(8-isopropyl-5-oxothieno[3′,2′:4,5]pyrrolo[1,2-d][1,2,4]triazin-6(5H)-yl)acetamide] | 23% | 5.7% | – | – | –
237 nM | – | CC(C)CN1CCC[C@@H](NC(=O)Cn2nc(C(C)C)n3c(cc4ccsc43)c2=O)C1 [Example 14, (R)—N-(1-isobutylpiperidin-3-yl)-2-(8-isopropyl-5-oxothieno[3′,2′:4,5]pyrrolo[1,2-d][1,2,4]triazin-6(5H)-yl)acetamide] | -0.5% | -18.8% | – | – | –
775 nM | – | CC(C)c1nn(CC(=O)N[C@@H]2CCCN(CC3CC3)C2)c(=O)c2cc3ccsc3n12 [Example 28, (R)—N-(1-(cyclopropylmethyl)piperidin-3-yl)-2-(8-isopropyl-5-oxothieno[3′,2′:4,5]pyrrolo [1,2-d][1,2,4]triazin-6(5H)-yl)acetamide formate] | 34.4% | -45.5% | – | – | –
– | – | C=O.CC(C)c1nn(CC(=O)N[C@@H]2CCCN(CCO)C2)c(=O)c2cc3ccsc3n12 [Example 19, (R)—N-(1-(2-hydroxyethyl)piperidin-3-yl)-2-(8-isopropyl-5-oxothieno [3′,2′:4,5]pyrrolo[1,2-d][1,2,4]triazin-6(5H)-yl)acetamide compound with formaldehyde] | 27.7% | -22.7% | 225 nM | – | –
1230 nM | – | CC(C)c1nn(CC(=O)N[C@@H]2CCCN(C)C2)c(=O)c2cc3cc(Cl)sc3n12 [Example 5, (R)-2-(2-chloro-8-isopropyl-5-oxothieno[3′,2′:4,5]pyrrolo[1,2-d][1,2,4]triazin-6(5H)-yl)-N-(1-methylpiperidin-3-yl)acetamide 2,2,2-trifluoroacetate] | -18.2% | -14.1% | – | – | –
168 nM | – | O=C(Cn1nc(C2CC2)n2c(cc3cc(Cl)sc32)c1=O)N[C@@H]1CCCN(C2CC2)C1 [Example 13, (R)-2-(2-chloro-8-cyclopropyl-5-oxothieno[3′,2′:4,5]pyrrolo[1,2-d][1,2,4]triazin-6(5H)-yl)-N-(1-cyclopropylpiperidin-3-yl)acetamide] | 5.2% | 22.2% | – | – | –
30 nM | – | CC(C)c1nn(CC(=O)N[C@@H]2CCCN(C3CCC3)C2)c(=O)c2cc3cc(Br)sc3n12 [Example 31, (R)-2-(2-bromo-8-isopropyl-5-oxothieno[3′,2′:4,5]pyrrolo[1,2-d][1,2,4]triazin-6(5H)-yl)-N-(1-cyclobutylpiperidin-3-yl)acetamide 2,2,2-trifluoroacetate] | 10.5% | 32.5% | – | – | –
185 nM | – | O=C(Cn1nc(C2CC2)n2c(cc3ccsc32)c1=O)N[C@@H]1CCCN(C2CCC2)C1 [Example 20, (R)—N-(1-cyclobutylpiperidin-3-yl)-2-(8-cyclopropyl-5-oxothieno[3′,2′:4,5]pyrrolo[1,2-d][1,2,4]triazin-6(5H)-yl)acetamide] | -6.1% | -26% | – | – | –
311 nM | – | CC(C)c1nn(CC(=O)N[C@@H]2CCCN(CC(C)(C)O)C2)c(=O)c2cc3ccsc3n12 [Example 23, (R)—N-(1-(2-hydroxy-2-methylpropyl)piperidin-3-yl)-2-(8-isopropyl-5-oxothieno[3′,2′:4,5]pyrrolo[1,2-d][1,2,4]triazin-6(5H)-yl)acetamide formate] | 1.8% | 3.3% | – | – | –
– | 577 nM | CC(C)c1nn(CC(=O)Nc2cncs2)c(=O)c2cc3ccsc3n12 [Example 2, 2-(8-isopropyl-5-oxothieno[3′,2′:4,5]pyrrolo[1,2-d][1,2,4]triazin-6(5H)-yl)-N-(thiazol-5-yl) acetamide] | – | – | – | 3.3 | −51.5
2890 nM | – | CN1CCC[C@@H](NC(=O)Cn2nc(C3CC3)n3c(cc4ccsc43)c2=O)C1 [Example 24, (R)-2-(8-cyclopropyl-5-oxothieno[3′,2′:4,5]pyrrolo[1,2-d][1,2,4]triazin-6(5H)-yl)-N-(1-methylpiperidin-3-yl)acetamide formate] | 12% | 15.5% | – | – | –
661 nM | – | CC(C)c1nn(CC(=O)N[C@@H]2CCCN(C)C2)c(=O)c2cc3ccsc3n12 [Example 1, (R)-2-(8-isopropyl-5-oxothieno[3′,2′:4,5]pyrrolo[1,2-d][1,2,4]triazin-6(5H)-yl)-N-(1-methylpiperidin-3-yl)acetamide] | -5.1% | -17.7% | – | – | –
1010 nM | – | CC(C)c1nn(CC(=O)NC2CCCN(C3CCC3(C)C)C2)c(=O)c2cc3ccsc3n12 (racemic) [Example 57, 2-(12-isopropyl-9-oxo-3-thia-1,10,11-triazatricyclo[6.4.0.02,6]dodeca-2(6),4,7,11-tetraen-10-yl)-N-[rac-(3R)-1-(2,2-dimethylcyclobutyl)-3-piperidyl]acetamide] | – | – | – | – | –
29 nM | – | CC(C)c1nn(CC(=O)N[C@@H]2CCCN(C(C)(C)CO)C2)c(=O)c2cc3ccsc3n12 [Example 79, N-[(3R)-1-(1-hydroxy-2-methylpropan-2-yl)piperidin-3-yl]-2-(8-isopropyl-5-oxothieno [3′,2′:4,5]pyrrolo[1,2-d][1,2,4]triazin-6(5H)-yl)acetamide] | – | – | – | – | –
27 nM | – | CC(C)c1nn(CC(=O)N[C@@H]2CCCN(C3CCCC3)C2)c(=O)c2cc3ccsc3n12 [Example 49, N-[(3R)-1-cyclopentyl-3-piperidyl]-2-(12-isopropyl-9-oxo-3-thia-1,10,11-triazatricyclo [6.4.0.02,6]dodeca-2(6),4,7,11-tetraen-10-yl)acetamide] | – | – | – | – | –
60 nM | – | O=C(Cn1nc(C2CC2)n2c(cc3ccsc32)c1=O)N[C@@H]1CCCN(C2CC2)C1 [Example 21, (R)-2-(8-cyclopropyl-5-oxothieno[3′,2′:4,5]pyrrolo[1,2-d][1,2,4]triazin-6(5H)-yl)-N-(1-cyclopropylpiperidin-3-yl)acetamide] | 11.7% | 13.5% | – | – | –
– | – | CC(C)c1nn(CC(=O)NC2CN3CCC2CC3)c(=O)c2cc3ccsc3n12 (stereo not drawn) [Example 39, 2-(8-isopropyl-5-oxothieno[3′,2′:4,5]pyrrolo[1,2-d][1,2,4]triazin-6(5H)-yl)-N-(quinuclidin-3-yl)acetamide] | – | – | 2230 nM | – | –
